Reference: patent publication US20100204203A1, “Chemical Compounds 637: Pyridopyrimidinediones as PDE4 Inhibitors” (priority 2007, published 2010)

Biological target: recombinant Human Phosphodiesterase B2 (PDE4B2) (Homo sapiens, UniProt Q07343)
Test: Human Phosphodiesterase B2 Radiometric Assay (yttrium silicate SPA beads, [3H]cyclic AMP)
Assay type: biochemical
Details: at 0.32 uM
Procedure, shortened: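 Compounds were preincubated 30 min at 30 °C with 0.1 mg/mL PDE4B2 in 50 mM HEPES pH 7.5, 8.3 mM MgCl2, 1.7 mM EGTA, 0.01% Brij 35. Then 8 nM [3H]cAMP was added for 20 min, stopped with yttrium silicate SPA beads plus 18 mM ZnSO4 capturing product 5′AMP; pIC50 by curve fitting.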

recombinant Human Phosphodiesterase B2 (PDE4B2), sequence (Q07343 1-564 isoform Q07343-2): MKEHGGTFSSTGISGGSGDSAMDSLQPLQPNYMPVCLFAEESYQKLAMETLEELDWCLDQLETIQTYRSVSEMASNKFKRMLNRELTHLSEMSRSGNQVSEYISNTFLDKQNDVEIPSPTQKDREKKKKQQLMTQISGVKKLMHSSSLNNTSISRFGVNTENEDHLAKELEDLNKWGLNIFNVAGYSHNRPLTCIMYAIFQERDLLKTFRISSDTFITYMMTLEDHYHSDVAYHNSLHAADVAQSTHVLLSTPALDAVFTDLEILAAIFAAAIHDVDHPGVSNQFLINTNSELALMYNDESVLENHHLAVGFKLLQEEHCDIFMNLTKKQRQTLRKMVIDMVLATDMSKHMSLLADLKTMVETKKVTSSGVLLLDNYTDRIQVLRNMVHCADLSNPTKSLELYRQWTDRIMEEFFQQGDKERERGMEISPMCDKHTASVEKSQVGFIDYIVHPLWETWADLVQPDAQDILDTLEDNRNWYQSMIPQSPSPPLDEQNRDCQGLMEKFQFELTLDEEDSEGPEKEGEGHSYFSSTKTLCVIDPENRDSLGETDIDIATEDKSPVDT

PDE4B2 (percent at a single concentration, printed in the pIC50 column) | Structure (SMILES)
50% at 0.32 uM | CN1CCC(n2c(=O)n([C@H]3CC[C@@H](NC(=O)c4cn5cc(F)ccc5n4)CC3)c(=O)c3cc(F)cnc32)CC1 [Example 40, 6-fluoro-N-{cis-4-[6-fluoro-1-(1-methylpiperidin-4-yl)-2,4-dioxo-1,4-dihydropyrido[2,3-d]pyrimidin-3(2H)-yl]cyclohexyl}imidazo[1,2-c]pyridine-2-carboxamide]

Same assay, conditions: recombinant human PDE4B2, radiometric SPA assay, 8 nM [3H]cyclic AMP; read-out: PDE4B2 pIC50 (converted)

IC50 | Structure (SMILES)
0.631 nM | Cc1ccc(CN[C@H]2CC[C@@H](n3c(=O)c4cc(F)cnc4n(-c4cccc(-c5ccc(CN6CCN(C(C)C)CC6)cc5)c4)c3=O)CC2)s1 [Example 261, 6-fluoro-1-{4′-[(4-isopropylpiperazin-1-yl)methyl]biphenyl-3-yl}-3-(cis-4-{[(5-methyl-2-thienyl)methyl]amino}cyclohexyl)pyrido[2,3-d] pyrimidine-2,4(1H,3H)-dione]
0.0251 nM | CNCCOc1ccc(-c2cccc(-n3c(=O)n([C@H]4CC[C@@H](NC(=O)c5cn6cc(F)ccc6n5)CC4)c(=O)c4cc(F)cnc43)c2)cc1 [Example 77, 6-fluoro-N-{cis-4-[6-fluoro-1-{4′-[2-(methylamino)ethoxy]biphenyl-3-yl}-2,4-dioxo-1,4-dihydropyrido[2,3-d]pyrimidin-3(2H)-yl]cyclohexyl}imidazo[1,2-c]pyridine-2-carboxamide]
0.0316 nM | O=C(N[C@H]1CC[C@@H](n2c(=O)c3cc(F)cnc3n(-c3cccc(-c4ccc(CN5CCC(N6CCCCC6)CC5)cc4)c3)c2=O)CC1)c1nc2ccccc2[nH]1 [Example 298, N-{cis-4-[1-[4′-(1,4′-bipiperidin-1′-ylmethyl)biphenyl-3-yl]-6-fluoro-2,4-dioxo-1,4-dihydropyrido[2,3-d]pyrimidin-3(2R)-yl]cyclohexyl}-1H-benzimidazole-2-carboxamide]
0.00794 nM | Cc1cccc2nc(C(=O)N[C@H]3CC[C@@H](n4c(=O)c5cc(F)cnc5n(-c5cccc(-c6ccc(CN7CCCN(C)CC7)cc6)c5)c4=O)CC3)cn12 [Example 220, N-{cis-4-[6-fluoro-1-{4′-[(4-methyl-1,4-diazepan-1-yl)methyl]biphenyl-3-yl}-2,4-dioxo-1,4-dihydropyrido[2,3-d]pyrimidin-3(2H)-yl]cyclohexyl}-5-methylimidazo[1,2-a]pyridine-2-carboxamide]
0.1 nM | CN(Cc1cc(O)ccc1-c1cccc(-n2c(=O)n([C@H]3CC[C@@H](NCc4cn5cc(F)ccc5n4)CC3)c(=O)c3cc(F)cnc32)c1)C1(CO)CC1 [Example 321, 6-fluoro-3-(cis-4-{[(6-fluoroimidazo[1,2-a]pyridin-2-yl)methyl]amino}cyclohexyl)-1-(4′-hydroxy-2′-{[[1-(hydroxymethyl)cyclopropyl](methyl)amino]methyl}biphenyl-3-yl)pyrido[2,3-c]pyrimidine-2,4(1H,3H)-dione]
0.0631 nM | O=C(N[C@H]1CC[C@@H](n2c(=O)c3cc(F)cnc3n(-c3cccc(Sc4ccccc4)c3)c2=O)CC1)c1cn2cc(F)ccc2n1 [Example 44, 6-fluoro-N-{cis-4-[6-fluoro-2,4-dioxo-1-[3-(phenylthio)phenyl]-1,4-dihydropyrido[2,3-d]pyrimidin-3(2H)-yl]cyclohexyl}imidazo[1,2-a]pyridine-2-carboxamide]
1.26 nM | CC(C)c1ccc(CN[C@H]2CC[C@@H](n3c(=O)c4cc(F)cnc4n(-c4cccc(-c5ccc(O)cc5CN5CCOCC5)c4)c3=O)CC2)cc1 [Example 283, 6-fluoro-1-[4′-hydroxy-2′-(morpholin-4-ylmethyl)biphenyl-3-yl]-3-{cis-4-[(4-isopropylbenzyl)amino]cyclohexyl} pyrido[2,3-d]pyrimidine-2,4(1H,3H)-dione]
2.51 nM | O=c1c2cc(F)cnc2n(-c2cccc(-c3ccc(O)cc3CN3CCC[C@H]3CO)c2)c(=O)n1[C@H]1CC[C@@H](NCc2cn3cc(F)ccc3n2)CC1 [Example 330, 6-fluoro-3-(cis-4-{[(6-fluoroimidazo[1,2-a]pyridin-2-yl)methyl]amino}cyclohexyl)-1-(4′-hydroxy-2′-{[(2S)-2-(hydroxymethyl)pyrrolidin-1-yl]methyl}biphenyl-3-yl)pyrido[2,3-d]pyrimidine-2,4(1H,3H)-dione]
5.01 nM | CN(C)CCCC(=O)N[C@H]1CC[C@@H](n2c(=O)c3cc(F)cnc3n(-c3cccc(-c4ccccc4)c3)c2=O)CC1 [Example 93, N-[cis-4-(1-biphenyl-3-yl-6-fluoro-2,4-dioxo-1,4-dihydropyrido[2,3-d]pyrimidin-3(2H)-yl)cyclohexyl]-4-(dimethylamino)butanamide]
6.31 nM | O=c1c2cc(F)cnc2n(-c2cccc(-c3ccc(O)cc3CN3CCOCC3)c2)c(=O)n1[C@H]1CC[C@@H](NCC2CC2)CC1 [Example 249, 3-{cis-4-[(Cyclopropylmethyl)amino]cyclohexyl}-6-fluoro-1-[4′-hydroxy-2′-(morpholin-4-ylmethyl)biphenyl-3-yl]pyrido[2,3-d]pyrimidine-2,4(1H,3H)-dione]
0.1 nM | O=C(N[C@H]1CC[C@@H](n2c(=O)c3cc(F)cnc3n(-c3cccc(-c4ccccn4)c3)c2=O)CC1)c1cn2cc(F)ccc2n1 [Example 55, 6-fluoro-N-{cis-4-[6-fluoro-2,4-dioxo-1-(3-pyridin-2-ylphenyl)-1,4-dihydropyrido[2,3-d]pyrimidin-3(2H)-yl]cyclohexyl}imidazo[1,2-a]pyridine-2-carboxamide]
10 nM | O=C(N[C@H]1CC[C@@H](n2c(=O)c3cc(F)cnc3n(-c3ccc4c(cnn4Cc4ccccc4)c3)c2=O)CC1)c1cn2cc(F)ccc2n1 [Example 39, N-{cis-4-[1-(1-benzyl-1H-indazol-5-yl)-6-fluoro-2,4-dioxo-1,4-dihydropyrido[2,3-d]pyrimidin-3 (2H)-yl]cyclohexyl}-6-fluoroimidazo[1,2-a]pyridine-2-carboxamide]
0.00794 nM | O=C(N[C@H]1CC[C@@H](n2c(=O)c3cc(F)cnc3n(-c3cccc(-c4ccc(CCN5CCOCC5)cc4)c3)c2=O)CC1)c1cn2cc(F)ccc2n1 [Example 50, 6-fluoro-N-{cis-4-[6-fluoro-1-[4′-(2-morpholin-4-ylethyl)biphenyl-3-yl]-2,4-dioxo-1,4-dihydropyrido[2,3-d]pyrimidin-3(2H)-yl]cyclohexyl}imidazo[1,2-c]pyridine-2-carboxamide]
0.0126 nM | CSc1cccc(-c2cccc(-n3c(=O)n([C@H]4CC[C@@H](NC(=O)c5cn6cc(F)ccc6n5)CC4)c(=O)c4cc(F)cnc43)c2)c1 [Example 15, 6-fluoro-N-{cis-4-[6-fluoro-1-[3′-(methylthio)biphenyl-3-yl]-2,4-dioxo-1,4-dihydropyrido[2,3-d]pyrimidin-3(2H)-yl]cyclohexyl}imidazo[1,2-a]pyridine-2-carboxamide.]
0.794 nM | Cc1ccc(CN[C@H]2CC[C@@H](n3c(=O)c4cc(F)cnc4n(-c4cccc(-c5ccc(O)cc5CN5CCOCC5)c4)c3=O)CC2)cc1 [Example 278, 6-fluoro-1-[4′-hydroxy-2′-(morpholin-4-ylmethyl)biphenyl-3-yl]-3-{cis-4-[(4-methylbenzyl)amino]cyclohexyl}pyrido[2,3-d] pyrimidine-2,4(1H,3H)-dione]
0.126 nM | CN(C)CCc1ccc(-c2cccc(-n3c(=O)n([C@H]4CC[C@@H](NC(=O)c5cn6cc(F)ccc6n5)CC4)c(=O)c4cc(F)cnc43)c2)cc1 [Example 99, N-{cis-4-[1-{4′-[2-(dimethylamino)ethyl]biphenyl-3-yl}-6-fluoro-2,4-dioxo-1,4-dihydropyrido[2,3-d]pyrimidin-3(2H)-yl]cyclohexyl}-6-fluoroimidazo[1,2-a]pyridine-2-carboxamide]
